Laboratory results from patent US20070197657A1, “Method for treating non-inflammatory musculoskeletal pain” (SRZ Properties, Inc., priority 2005, published 2007).
“Also recorded” adds a separate entry of the source.

What was measured:
[1] = system: muscle pressure hyperalgesia induced by TNF; assay: TNF-induced muscle pressure hyperalgesia (Randall-Selitto, gastrocnemius muscle); assay type: in vivo, rat; details: for reversal of muscular mechanical hyperalgesia (withdrawal threshold to muscle pressure): TNF 1 μg i.m. gastrocnemius, 30 mg/kg
Excerpt: (§1) The model used in this example is applicable to musculoskeletal pain which occurs in fibromyalgia, myofascial pain syndrome or back pain. For comparative purposes, the non-opioid analgesic dipyrone (metamizol) and the anticonvulsants pregabalin and gabapentin were included in the study.
(§2) Adult male Sprague Dawley rats with a body weight of 250 g to 300 g were used (supplier: Charles River, Sulzfeld, Germany). Animals were group-housed (3 animals per cage) and maintained in a room with controlled temperature (21-22° C.) and a reversed light-dark cycle (12 h/12 h) with food and water available ad libitum. All experiments were approved by the Bavarian State animal experimentation committee and carried out in accordance with its regulations.
(§3) Recombinant rat tumor necrosis factor alpha (herein referred to as TNF) was obtained from R&D Systems, Minneapolis, Minn., U.S.A. TNF was diluted in 0.9% NaCl and used in a concentration of 1 μg in 50 μl. Injections were performed in short halothane narcosis with a 30 g needle bilaterally into the gastrocnemius or into the biceps brachii muscle. All rats were used to the behavioral tests before injections and baseline values were recorded over three test days.
Mechanical withdrawal thresholds to muscle pressure were measured with an analgesimeter (Ugo Basile, Comerio, Italy). The rat was allowed to crawl into a sock which helps the rat to relax. The hind limbs were positioned such that an increasing pressure could be applied onto the gastrocnemius muscle (maximum 250 g). The pressure needed to elicit withdrawal was recorded. Means of 3 trials for each hind limb were calculated (interstimulus interval of >30 sec). Only animals with a significant TNF effect were included for further analysis.
Rats were injected with TNF into the gastrocnemius muscle at 2 pm. Eighteen hours later, rats were tested for pressure hyperalgesia pre- and post-administration of the test drug. Rats were tested for pressure hyperalgesia 30 to 60 minutes after drug administration.
(§4) The rats, initially 10 per group, were treated with either 3, 10 or 30 mg/kg lacosamide, 2 mg/kg metamizol, 30 or 100 mg/kg pregabalin, 100 mg/kg gabapentin, or the NaCl vehicle, i.p. (intraperitoneally). Volume of i.p. injections was 0.5 ml. A pilot study was performed to confirm that i.m. (intramuscular) injection of 1 μg TNF into the gastrocnemius muscle was sufficient to induce pressure hyperalgesia.
(§5) Data are shown in graphs displaying means and standard errors of the means (SEM). Pre- and post-treatment data were compared using ANOVA (analysis of variance) and a Tukey post hoc test. Means of treatment groups were compared using a one-way ANOVA and Dunnett's post hoc test. Maximal possible effects (MPE) were calculated for all types of treatment.

[2] = system: TNF-induced reduction of grip strength; assay: biceps muscle grip strength after TNF-induced muscle pain; assay type: in vivo, rat; details: for reversal of TNF-induced reduction of grip strength: TNF 1 μg i.m. biceps brachii
Excerpt: as §1, §2, §3
Grip strength of the forelimbs was tested with a digital grip force meter (DFIS series, Chatillon, Greensboro, N.C., U.S.A.). The rat was positioned to grab the grid with the forelimbs and was gently pulled so that the grip strength could be recorded. Means of three trials were calculated. The effect of the TNF treatment was calculated for each animal separately and only animals with a significant TNF effect were included for further analysis.
Rats were injected with TNF into the biceps brachii muscle at 8 am. Six hours later, grip strength of the forelimbs was tested with a digital grip force meter. Test drug was administered, and grip strength was again tested after 30 to 60 minutes.
as §4, §5

[3] = system: monosodium iodoacetate-induced tactile allodynia; assay: monosodium iodoacetate-induced tactile allodynia (von Frey filaments); assay type: in vivo, rat
[4] = system: monosodium iodoacetate-induced mechanical hyperalgesia; assay: monosodium iodoacetate-induced mechanical hyperalgesia (Randall-Selitto paw pressure); assay type: in vivo, rat; details: for mechanical hyperalgesia (paw pressure withdrawal threshold): day 7
[5] = system: formalin-induced flinching and licking of the affected paw; assay: rat formalin paw test (late phase); assay type: in vivo
Experimental: Rats were given an intraplantar injection of 5% formalin (50 μl) into the posterior left paw. This treatment induces a recognizable flinching and licking response of the affected paw in control animals. The number of flinches was counted for 15 minutes, beginning 20 minutes after injection of formalin. The time spent licking the affected paw was also recorded.
Male Rj: Wistar (Han) rats, 10 per group, weighing 100-130 g at the beginning of the experiments were studied per group. The test was performed blind.
Lacosamide (20 mg/kg), gabapentin (50 and 100 mg/kg), combinations of lacosamide (20 mg/kg) with gabapentin (50 and 100 mg/kg), and vehicle were administered i.p. 10 minutes before injection of formalin.
Lacosamide (10 and 20 mg/kg), morphine (2 and 4 mg/kg), combinations of lacosamide (10 and 20 mg/kg) with morphine (2 and 4 mg/kg), and vehicle were administered i.p. 10 minutes before injection of formalin.
Lacosamide (10 mg/kg), duloxetine (8 mg/kg), a combination of lacosamide (10 mg/kg) with duloxetine (8 mg/kg), and vehicle were administered i.p. 10 minutes before injection of formalin.
Lacosamide (10 and 20 mg/kg), memantine (4 and 8 mg/kg), combinations of lacosamide (10 and 20 mg/kg) with memantine (4 and 8 mg/kg), and vehicle were administered i.p. 10 minutes before injection of formalin.
Lacosamide (10 and 20 mg/kg), naproxen (8 and 16 mg/kg), combinations of lacosamide (10 and 20 mg/kg) with […] (8 and 16 mg/kg), and vehicle were administered i.p. 10 minutes before injection of formalin. Morphine (8 mg/kg) was included as a comparative treatment.

[6] = Example 3, lacosamide 20 mg/kg i.p.
[7] = Example 4, lacosamide 10 mg/kg i.p.
[8] = Example 4, lacosamide 20 mg/kg i.p.
[9] = Example 5, lacosamide 10 mg/kg i.p.
[10] = Example 6, lacosamide 10 mg/kg i.p.
[11] = Example 6, lacosamide 20 mg/kg i.p.
[12] = Example 7, lacosamide 10 mg/kg i.p.
[13] = Example 7, lacosamide 20 mg/kg i.p.

Compound: COC[C@@H](NC(C)=O)C(=O)NCc1ccccc1 [Lacosamide, (R)-2-acetamido-N-benzyl-3-methoxypropionamide]
- MPE (maximal possible effect) on muscle pressure hyperalgesia, versus vehicle ([1]; 10 mg/kg i.p.): significantly different from vehicle
- MPE (maximal possible effect) on muscle pressure hyperalgesia, versus vehicle ([1]; 30 mg/kg i.p.): significantly different from vehicle
- reversal of muscular mechanical hyperalgesia (withdrawal threshold to muscle pressure) ([1]; 30 mg/kg i.p.): full reversal
- reversal of muscular mechanical hyperalgesia (withdrawal threshold to muscle pressure) ([1]; 30 mg/kg i.p., listed as lacosamide): complete reversal
- effect on muscle pain in comparison to pregabalin and gabapentin ([1]; paw pressure test): stronger effect
- MPE (maximal possible effect) on biceps muscle grip strength, versus vehicle ([2]; 10 mg/kg i.p.): significantly different from vehicle
- MPE (maximal possible effect) on biceps muscle grip strength, versus vehicle ([2]; 30 mg/kg i.p.): significantly different from vehicle
- reversal of TNF-induced reduction of grip strength ([2]; 10 mg/kg i.p., 10 mg/kg): significant reversal; also recorded: reversed the effect of TNF
- reversal of TNF-induced reduction of grip strength ([2]; 30 mg/kg i.p.): significant reversal
- potency compared with pregabalin and gabapentin ([2]; grip strength test): more potent
- tactile allodynia of iodoacetate-treated rats ([3]; day 3, 30 mg/kg (lacosamide p.o., diclofenac s.c.)): improved
- tactile allodynia of iodoacetate-treated rats ([3]; day 7, 30 mg/kg (lacosamide p.o., diclofenac s.c.)): improved
- tactile allodynia of iodoacetate-treated rats ([3]; day 14, 30 mg/kg (lacosamide p.o., diclofenac s.c.)): not on day 14
- tactile allodynia of iodoacetate-treated rats ([3]; lower doses of lacosamide (3, 10 mg/kg p.o.)): showed a trend for such improvement
- mechanical hyperalgesia (paw pressure withdrawal threshold) compared to iodoacetate/vehicle treated animals ([4]; day 3, 3 mg/kg (lacosamide p.o., morphine s.c.)): increase in paw pressure withdrawal threshold
- mechanical hyperalgesia (paw pressure withdrawal threshold) ([4]; 3 mg/kg (lacosamide p.o., morphine s.c.)): reduced mechanical hyperalgesia
- mechanical hyperalgesia (paw pressure withdrawal threshold) ([4]; 30 mg/kg (lacosamide p.o., diclofenac s.c.)): reduced mechanical hyperalgesia
- Licking time % change (a): compared with vehicle control [5, 6]: −34%
- Licking time (seconds) mean ± SEM [5, 6]: 146.9 ± 23.8 s
- No. of flinches % change (a): compared with vehicle control [5, 6]: −33%
- No. of flinches mean ± SEM [5, 6]: 85.7 ± 14.3
- decrease in the number of flinches as compared with vehicle controls [5, 6]: 33%
- decrease in the time spent licking as compared with vehicle controls [5, 6]: 34%
- Licking time % change (a): compared with vehicle control [5, 7]: −28%
- Licking time (seconds) mean ± SEM [5, 7]: 210.1 ± 22.7 s
- No. of flinches % change (a): compared with vehicle control [5, 7]: +22%
- No. of flinches mean ± SEM [5, 7]: 182.7 ± 25.9
- decrease in the time spent licking as compared with vehicle controls [5, 7]: 28%
- increase in the number of flinches as compared with vehicle controls [5, 7]: 22%
- Licking time % change (a): compared with vehicle control [5, 8]: −56%
- Licking time (seconds) mean ± SEM [5, 8]: 128.2 ± 28.0 s
- No. of flinches % change (a): compared with vehicle control [5, 8]: −35%
- No. of flinches mean ± SEM [5, 8]: 97.2 ± 16.0
- decrease in the number of flinches as compared with vehicle controls [5, 8]: 35%
- decrease in the time spent licking as compared with vehicle controls [5, 8]: 56%
- Licking time % change (a): compared with vehicle control [5, 9]: −30%
- Licking time (seconds) mean ± SEM [5, 9]: 185.2 ± 31.7 s
- No. of flinches % change (a): compared with vehicle control [5, 9]: +5%
- No. of flinches mean ± SEM [5, 9]: 158.2 ± 15.6
- decrease in the time spent licking [5, 9]: 30%
- effects on number of flinches and time spent licking [5, 9]: no significant effects
- Licking time % change (a): compared with vehicle control [5, 10]: −4%
- Licking time (seconds) mean ± SEM [5, 10]: 168.5 ± 23.9 s
- No. of flinches % change (a): compared with vehicle control [5, 10]: −31%
- No. of flinches mean ± SEM [5, 10]: 113.9 ± 23.2
- decrease in the number of flinches as compared with vehicle controls [5, 10]: 31%
- effect on the time spent licking [5, 10]: no clear effects
- Licking time % change (a): compared with vehicle control [5, 11]: −52%
- Licking time (seconds) mean ± SEM [5, 11]: 85.1 ± 19.1 s
- No. of flinches % change (a): compared with vehicle control [5, 11]: −48%
- No. of flinches mean ± SEM [5, 11]: 85.8 ± 14.4
- decrease in the number of flinches as compared with vehicle controls [5, 11]: 48%
- decrease in the time spent licking [5, 11]: 52%
- Licking time % change (a): compared with vehicle control [5, 12]: −9%
- Licking time (seconds) mean ± SEM [5, 12]: 174.7 ± 20.4 s
- No. of flinches % change (a): compared with vehicle control [5, 12]: −13%
- No. of flinches mean ± SEM [5, 12]: 99.2 ± 16.6
- effect on the time spent licking [5, 12]: no clear effects
- Licking time % change (a): compared with vehicle control [5, 13]: −59%
- Licking time (seconds) mean ± SEM [5, 13]: 78.9 ± 20.4 s
- No. of flinches % change (a): compared with vehicle control [5, 13]: −12%
- No. of flinches mean ± SEM [5, 13]: 100.3 ± 22.3
- decrease in the time spent licking [5, 13]: 59%
- effect on the number of flinches as compared with vehicle controls ([5]; Example 7, lacosamide 10 and 20 mg/kg i.p.): did not clearly affect
